From patent US20050107386A1, “Methods of treating diseases and disorders by targeting multiple kinases” (priority 2003, published 2005)

Assays:
Type in all cases: biochemical
[1] = tested on: panel of 50 kinases; test: Panel of 50 kinases (Table 2), count of inhibited kinases; conditions: compared to a no-compound control; 3 μM
Method: (§1) Six compounds (presumptive single agents) were tested against a panel of 50 kinases. The results are presented in Table 2; numbers for each kinase indicate the percent of control kinase activity in the presence of a 3μM concentration of the indicated agent.
CC006 (5-(5-Cyclopentyl-1H-[1,2,4]triazol-3-yl)-3-(4-fluoro-phenyl)-1H-indazole) and CC007 (3-(5-(1H-1,2,4-triazol-3-yl)(1H-indazol-3-yl))phenyl-N-cyclopentylcarboxamide) were included as controls.

[2] = biological target: T1, Aurora-A(h) (Homo sapiens, UniProt O14965); test: Aurora-A(h) kinase assay; conditions: 3 μM; percent of control kinase activity
T1 sequence (O14965 1-403): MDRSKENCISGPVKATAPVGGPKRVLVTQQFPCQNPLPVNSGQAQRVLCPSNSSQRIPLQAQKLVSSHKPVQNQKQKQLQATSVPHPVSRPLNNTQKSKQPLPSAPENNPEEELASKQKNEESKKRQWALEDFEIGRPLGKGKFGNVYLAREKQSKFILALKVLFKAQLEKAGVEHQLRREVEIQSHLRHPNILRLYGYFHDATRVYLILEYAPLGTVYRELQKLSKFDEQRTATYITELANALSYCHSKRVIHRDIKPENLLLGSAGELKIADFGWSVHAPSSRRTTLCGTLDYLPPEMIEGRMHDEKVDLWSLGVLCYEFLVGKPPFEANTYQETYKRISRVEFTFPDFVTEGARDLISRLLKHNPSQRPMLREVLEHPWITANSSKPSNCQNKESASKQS
Method: as §1
(§2) Agents that target two or more different kinases are useful in the methods of the invention as described elsewhere herein. Such compounds may be identified, and their effect on certain kinases may be identified, using the assays briefly described below in Examples 4-83. Each of these assays was carried out as described in Davies et al., Biochem. J., 351:95-105 (2000). All assays were carried out at 10 μM ATP unless otherwise noted.

[3] = biological target: CDK7/cyclinH/MAT1 (Homo sapiens, UniProt P50613); test: CDK7/cyclinH/MAT1 kinase assay; conditions: 3 μM; percent of control kinase activity
Method: as §1, §2
(§3) In a final reaction volume of 25 μl, CDK7/cyclinH/MAT1 (h) (5-10 mU) is incubated with 8 mM MOPS pH 7.0, 0.2 mM EDTA, 500 μM peptide, 10 mM MgAcetate and [γ-^33P-ATP] [specific activity approx. 500 cpm/pmol, concentration as required). The reaction is initiated by the addition of Mg^2+ [γ-33 P-ATP]. After incubation for 40 minutes at room temperature, the reaction is stopped by the addition of 5 μl of a 3% phosphoric acid solution. 10 μl of the reaction is then spotted onto a P30 filtermat and washed three times for 5 minutes in 75 mM phosphoric acid and once in methanol prior to drying and scintillation counting.

[4] = biological target: CDK2/cyclinA(h) (Homo sapiens, UniProt P24941); test: CDK2/cyclinA(h) kinase assay; conditions: for Inhibitory activity (% of control), CDK2/cyclinA(h): 3 μM, percent of control kinase activity
Method: as §1, §2
as §3, with “CDK2/cyclinA” for “CDK7/cyclinH/MAT1”, “0.1 mg/ml histone H1,” for “500 μM peptide,”, “[γ-^33p-ATP] (specific” for “[γ-^33P-ATP] [specific”, “[γ-^33P-ATP].” for “[γ-33 P-ATP].”

[5] = biological target: T2, PKCμ(h) (Homo sapiens, UniProt Q15139); test: PKCμ(h) kinase assay; conditions: 3 μM; percent of control kinase activity
T2 sequence (Q15139 1-912): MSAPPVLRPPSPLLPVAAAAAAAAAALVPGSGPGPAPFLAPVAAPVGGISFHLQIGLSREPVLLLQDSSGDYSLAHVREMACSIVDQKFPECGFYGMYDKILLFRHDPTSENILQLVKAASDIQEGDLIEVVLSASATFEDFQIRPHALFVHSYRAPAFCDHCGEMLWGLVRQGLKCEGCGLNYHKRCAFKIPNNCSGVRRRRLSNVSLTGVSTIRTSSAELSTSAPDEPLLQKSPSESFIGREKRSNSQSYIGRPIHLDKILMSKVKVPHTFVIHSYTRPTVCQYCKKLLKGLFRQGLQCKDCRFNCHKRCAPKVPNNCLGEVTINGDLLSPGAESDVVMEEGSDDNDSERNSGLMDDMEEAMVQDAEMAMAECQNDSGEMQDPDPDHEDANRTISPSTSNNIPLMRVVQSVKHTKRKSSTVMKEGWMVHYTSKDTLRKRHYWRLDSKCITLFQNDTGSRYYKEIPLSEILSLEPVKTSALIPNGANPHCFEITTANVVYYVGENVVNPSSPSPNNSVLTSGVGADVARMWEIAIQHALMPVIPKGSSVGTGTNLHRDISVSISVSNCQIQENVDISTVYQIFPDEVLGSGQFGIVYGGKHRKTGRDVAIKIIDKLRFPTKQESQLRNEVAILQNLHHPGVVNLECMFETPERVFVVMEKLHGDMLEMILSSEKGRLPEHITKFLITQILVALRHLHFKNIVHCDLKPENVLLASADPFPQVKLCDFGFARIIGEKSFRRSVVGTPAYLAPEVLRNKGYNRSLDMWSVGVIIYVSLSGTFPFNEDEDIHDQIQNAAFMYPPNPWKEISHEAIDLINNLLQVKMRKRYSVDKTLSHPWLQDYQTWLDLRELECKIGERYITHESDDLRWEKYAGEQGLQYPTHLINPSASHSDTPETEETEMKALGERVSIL
Method: as §1, §2

CDK7/cyclinH/MAT1, sequence (P50613 whole entry): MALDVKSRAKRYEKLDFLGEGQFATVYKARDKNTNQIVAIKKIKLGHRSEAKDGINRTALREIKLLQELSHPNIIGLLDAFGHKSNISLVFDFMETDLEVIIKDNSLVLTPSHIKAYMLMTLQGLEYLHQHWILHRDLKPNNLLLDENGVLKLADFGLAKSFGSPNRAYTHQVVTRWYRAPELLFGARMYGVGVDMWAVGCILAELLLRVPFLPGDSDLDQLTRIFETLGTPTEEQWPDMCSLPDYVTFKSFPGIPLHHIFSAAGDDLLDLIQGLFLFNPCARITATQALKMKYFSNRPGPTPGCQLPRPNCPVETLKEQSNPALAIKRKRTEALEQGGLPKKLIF
CDK7/cyclinH/MAT1, sequence (P51946 whole entry partner): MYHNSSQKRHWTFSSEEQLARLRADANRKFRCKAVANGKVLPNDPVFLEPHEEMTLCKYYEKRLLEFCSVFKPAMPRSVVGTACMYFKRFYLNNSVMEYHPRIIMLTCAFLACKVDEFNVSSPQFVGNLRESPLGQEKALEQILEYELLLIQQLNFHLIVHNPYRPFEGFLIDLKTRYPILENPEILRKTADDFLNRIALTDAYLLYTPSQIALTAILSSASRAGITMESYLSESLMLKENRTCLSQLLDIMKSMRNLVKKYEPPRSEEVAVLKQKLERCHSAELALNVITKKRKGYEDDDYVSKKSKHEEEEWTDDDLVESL
CDK7/cyclinH/MAT1, sequence (P51948 whole entry partner): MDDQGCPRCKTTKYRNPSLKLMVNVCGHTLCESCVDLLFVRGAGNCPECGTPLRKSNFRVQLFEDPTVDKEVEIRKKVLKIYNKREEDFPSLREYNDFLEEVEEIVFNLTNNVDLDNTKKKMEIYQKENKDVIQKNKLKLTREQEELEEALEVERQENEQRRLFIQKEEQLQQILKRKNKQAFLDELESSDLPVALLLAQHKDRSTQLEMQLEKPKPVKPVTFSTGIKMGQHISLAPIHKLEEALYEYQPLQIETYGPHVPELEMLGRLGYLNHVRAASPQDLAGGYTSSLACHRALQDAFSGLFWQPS

SMILES | number of kinases listed in Table 2 whose activity is inhibited by more than 95% [1] | Inhibitory activity (% of control), Aurora-A(h) [2] | Inhibitory activity (% of control), CDK7/cyclinH/MAT1 [3] | Inhibitory activity (% of control), CDK2/cyclinA(h) [4] | Inhibitory activity (% of control), PKCμ(h) [5] | inhibitory activity against CDK2, in words ([4]; summary of Table 2)
CC(C)Cc1nc(-c2ccc3[nH]nc(-c4ccc5cc(OCCN6CCCC6)ccc5c4)c3c2)n[nH]1 [CC002, 5-(5-Isobutyl-1H-[1,2,4]Triazol-3-yl)-3-[6-(2-Pyrrolidin-1-yl-Ethoxy)-Naphthalen-2-yl]-1H-Indazole] | 29 | – | – | – | – | –
COc1ccc2cc(-c3n[nH]c4ccc(-c5n[nH]c(CN6CCOCC6)n5)cc34)ccc2c1 [CC001, 3-(6-Methoxynaphthalen-2-yl)-5-(5-Morpholin-4-Ylmethyl-1H-[1,2,4]Triazol-3-yl)-1H-Indazole] | 16 | 7 % of control | 13 % of control | 4 % of control | 6 % of control | –
CC(C)(C)Cc1nc(-c2ccc3[nH]nc(-c4ccc5cc(OCc6ccccn6)ccc5c4)c3c2)n[nH]1 [CC004, 5-[5-(2,2-Dimethyl-propyl)-1H-[1,2,4]triazol-3-yl]-3-[6-(pyridine-2-ylmethoxy)-naphthalen-2-yl]-1H-indazole] | 16 | 7 % of control | 19 % of control | 2 % of control | 34 % of control | good inhibitory activity
CCN1CCC[C@H]1COc1ccc2cc(-c3n[nH]c4ccc(-c5nc(CC(C)(C)C)n[nH]5)cc34)ccc2c1 [CC005, 2-[((2s)-1-ethylpyrrolidin-2-yl)methoxy]-6-{5-[3-(2,2-Dimethylpropyl)(1H-1,2,4,-triazol-5-yl)](1H-indazol-3-yl)}naphthalene] | – | 0 % of control | 7 % of control | 2 % of control | 2 % of control | –
